Measurements from PubChem BioAssay AID790 (SRMLSC, 2007).
Active and inactive are the calls of the source. The rule behind the calls is not given here.

What was measured:
[1] = tested on: S. cerevisiae vps1Δ mutant growth inhibition; assay: growth inhibition of yeast vps1Δ mutant, dose response, S. cerevisiae, background strain comparison (AID 790)
[2] = as above; settings: S. cerevisiae vps1Δ mutant growth inhibition; for IC50: measured here: background strain growth inhibition; for growth inhibition: at 25 µM (top of the series)

Row | Structure (SMILES) | IC50 [1] | IC50 [2] | growth inhibition [2]
1 | Cn1c2ccc(Cl)cc2c2nc3ccccc3nc21 | > 10 µM (inactive) | > 10 µM | –
2 | CCCCSCCCNC(=O)Nc1cccc(OC)c1 | > 10 µM (inactive) | > 10 µM | –
3 | CCOC(=O)c1c(-n2c(C)cc(C=C3C(=O)NC(=S)NC3=O)c2C)sc2c1CCCC2 | – | 11.5 µM | –
4 | Cc1ccc(Cl)c(OCCCCN(C)Cc2ccccc2)c1 | > 10 µM (inactive) | > 10 µM | –
5 | CCn1c(-c2c[nH]c3ccccc23)n[nH]c1=S | > 10 µM (inactive) | > 10 µM | –
6 | Cc1cc(=O)[nH]c(SCC(=O)c2ccc(C)c(C)c2)n1 | 0.896 µM | 2.31 µM | –
7 | Cc1ccc2cc(CN(CCO)Cc3nnnn3Cc3ccc(F)cc3)c(=O)[nH]c2c1 | > 10 µM (inactive) | > 10 µM | –
8 | OC(Cn1ccnc1)c1ccc(Cl)cc1Cl (stereo not given) | > 10 µM (inactive) | > 10 µM | –
9 | CC(C)(C)n1nnnc1CN(Cc1cccnc1)Cc1ccccc1Cl | > 10 µM (inactive) | > 10 µM | –
10 | O=C(Cn1ncc2c3ccccc3n(Cc3ccccc3F)c2c1=O)N1CCC2(CC1)OCCO2 | > 10 µM (inactive) | > 10 µM | –
11 | Cc1cccc(CS(=O)(=O)Cc2ccc(C(=O)NCCCN3CCCC3)o2)c1 | > 10 µM (inactive) | > 10 µM | –
12 | Cc1[nH]nc(N=CC2=C(O)CC(C)(C)CC2=O)c1-c1ccc(Cl)cc1 | > 10 µM (inactive) | – | –
13 | O=C(c1ccco1)N1CCN=C1SCc1cccnc1 | > 10 µM (inactive) | > 10 µM | –
14 | c1ccc2c(c1)oc1c(Nc3ccc(CN4CCOCC4)cc3)ncnc12 | > 10 µM (inactive) | > 10 µM | –
15 | CCOC(=O)COc1ccccc1C1Nc2ccccc2C(=O)N1c1cccc(Cl)c1 (stereo not given) | > 10 µM (inactive) | > 10 µM | –
16 | COc1cccc(-c2cc(C(=O)N3CCN(C(c4ccccc4)c4ccccc4)CC3)no2)c1 | > 10 µM (inactive) | > 10 µM | –
17 | CCOC(=O)c1ccc(NC(=O)c2ccc(CN3CCOCC3)cc2)cc1 | > 10 µM (inactive) | > 10 µM | –
18 | O=C(c1ccc(Cl)cc1Cl)N1CCC(c2nc3c(nnn3Cc3ccco3)c(=O)[nH]2)CC1 | > 10 µM (inactive) | > 10 µM | –
19 | Cc1ccc(C(=O)c2c(NC(=O)c3ccncc3)sc3c2CCCC3)cc1 | > 10 µM (inactive) | > 10 µM | –
20 | CCCCC(=O)Nc1nc(C)c(-c2csc(Nc3ccc(Cl)cc3)n2)s1 | 6.39 µM (inactive) | 6.26 µM | –
21 | OC(COCc1ccc(Cl)cc1)CN1CC=C(c2ccccc2)CC1 (stereo not given) | – | 20.8 µM | –
22 | Cn1nnc2cc(C(=O)Nc3cccnc3)ccc21 | > 10 µM (inactive) | > 10 µM | –
23 | Cc1cc(C)c2c(c1)/C(=C/C(=O)c1ccc(Br)s1)C(=O)N2 | 3.71 µM (inactive) | 1.42 µM | –

Row | Structure (SMILES) | IC50 [1] | IC50 [2] | growth inhibition [2]
24 | CCSc1nnc(NC(=O)NCC(F)(F)F)s1 | > 10 µM (inactive) | > 10 µM | –
25 | CCOC(=O)C(NC(C)=O)(Nc1ccc(S(=O)(=O)Nc2onc(C)c2C)cc1)C(F)(F)F (stereo not given) | > 10 µM (inactive) | > 10 µM | –
26 | CCC(=O)c1ccc(N2CCN(C(=O)c3ccc(Br)cc3)CC2)c(F)c1 | > 10 µM (inactive) | > 10 µM | –
27 | O=c1cccc2n1CC1CC2CN(S(=O)(=O)c2ccccc2)C1 (stereo not given) | > 10 µM (inactive) | > 10 µM | –
28 | CCc1cc(=O)oc2cc(C)c(CN3CCCC(C)C3)c(O)c12 (stereo not given) | > 10 µM (inactive) | > 10 µM | –
29 | CN1/C(=C/C2CC(=O)NC2=O)C(C)(C)c2ccccc21 (stereo not given) | > 10 µM (inactive) | > 10 µM | –
30 | Cc1cc(=O)oc2c(CN3CCCCC3)c(O)c(Cl)cc12 | > 10 µM (inactive) | > 10 µM | –
31 | O=S1(=O)C=C(Sc2nc3ccccc3s2)c2ccccc21 | > 10 µM (inactive) | – | –
32 | COc1ccc(-c2nnc(CSc3nc4ccccc4c(=O)n3C)o2)cc1OC | > 10 µM (inactive) | > 10 µM | –
33 | COc1ccc(OCCSc2nnc3sc4ccccc4n23)cc1 | > 10 µM (inactive) | – | –
34 | CCN(CC)c1ccc(-c2nc3cnccc3n2C)cc1 | > 10 µM (inactive) | > 10 µM | –
35 | O=c1c2cccc3c2c(nn1CN1CCOCC1)-c1ccccc1-3 | > 10 µM (inactive) | > 10 µM | –
36 | O=C(Nc1nc(-c2ccccn2)cs1)c1ncc(Cl)c(Cl)c1Cl | 2.06 µM | 13.3 µM | –
37 | O=C(CN1CCN(c2ccccn2)CC1)Nc1ccc(Oc2ccccc2)cc1 | > 10 µM (inactive) | – | –
38 | O=C(Nc1nnc(-c2cccs2)o1)c1cccc(C(F)(F)F)c1 | 1.67 µM (inactive) | – | –
39 | CCOc1nc(SCCOc2ccccc2)nc(N(C)C)n1 | > 10 µM (inactive) | – | –
40 | N#Cc1ccccc1Cn1cc(C(=O)c2cccs2)c2ccccc21 | > 10 µM (inactive) | – | –
41 | CC1CCN(S(=O)(=O)c2ccc(NC(=O)CCN3C(=O)c4ccccc4C3=O)cc2)CC1 | > 10 µM (inactive) | – | –
42 | O=C(Nc1nnc(-c2ccc3c(c2)CCCC3)o1)c1ccccc1 | 0.8 µM | – | –
43 | Cc1ccc(C(=O)Nc2ccc(Cc3ccncc3)cc2)cc1[N+](=O)[O-] | 23.6 µM | – | –
44 | N[C@@H](Cc1c[nH]c2ccccc12)c1nnc(SCc2ccc(Cl)cc2)o1 | – | 20.4 µM | –
45 | Cc1nc(NC(=O)c2ccccc2)sc1-c1csc(Nc2ccc(F)cc2)n1 | – | > 10 µM | –
46 | Cc1nn(Cc2cccc(C(=O)NC(C)c3ccc(C(C)(C)C)cc3)c2)c(C)c1[N+](=O)[O-] (stereo not given) | – | > 10 µM | 23.6% (inactive)

Row | Structure (SMILES) | IC50 [1] | IC50 [2] | growth inhibition [2]
47 | O=C(NCC(c1cccnc1)N1CCN(c2ccc(F)cc2)CC1)OCc1ccccc1 (stereo not given) | 22.4 µM | – | –
48 | O=C(C1CCCN(S(=O)(=O)c2ccc(Cl)cc2)C1)N(Cc1cccs1)C1CC1 (stereo not given) | 9.94 µM | – | –
49 | CC(C)c1ccc(C(=O)CSc2n[nH]c(-c3ccncc3)n2)cc1 | > 10 µM (inactive) | – | –
50 | CC(c1nnc(SCn2nnc3ccccc3c2=O)n1-c1ccc(Cl)cc1)N(C)C (stereo not given) | 5.55 µM | – | –
51 | Cc1cccc(N2CCN(CC(=O)Nc3nccs3)CC2)c1C | – | > 10 µM | 31.3% (inactive)
52 | C=C(C)C1CC=C(CN2CC(C)OC(C)C2)CC1 (stereo not given) | – | > 10 µM | –
53 | N=c1c2c(-c3ccccc3)c(-c3ccccc3)n(Cc3ccco3)c2ncn1Cc1ccccc1 | > 10 µM (inactive) | – | –
54 | OC(c1ccc(Cl)cc1Cl)C(Cc1cccnc1)n1cncn1 (stereo not given) | – | > 10 µM | –
55 | O=C(NCC1COc2ccccc2O1)c1ccc(Cl)cc1 (stereo not given) | 3.31 µM | – | –
56 | O=S1(=O)C=C(Sc2nnc(-c3ccccc3)o2)c2ccccc21 | 24.2 µM | – | –
57 | CCOc1ccc(NC(=O)N(C2CCCCC2)C(C)c2cccnc2)cc1 (stereo not given) | 15.6 µM | – | –
58 | CCCCC(c1nnnn1Cc1ccco1)N1CCN(c2nc3ccccc3s2)CC1 (stereo not given) | – | 3.9 µM | –
59 | CCCCCCOc1ccc(CN2CCN(CCO)CC2)cc1 | > 10 µM (inactive) | – | –
60 | CC(Sc1ccsc1[N+](=O)[O-])C(=O)NCCc1ccc(Cl)cc1 (stereo not given) | > 10 µM (inactive) | – | –
61 | CC1CCC(C(C)C)C(OCC(O)CN2CCN(Cc3ccccc3)CC2)C1 (stereo not given) | > 10 µM (inactive) | – | –
62 | O=C(OCn1ncc(Br)c(Br)c1=O)c1c(F)cccc1F | 16.2 µM | – | –
63 | O=[N+]([O-])c1cc(Cl)cc(/C=N\Nc2ccccn2)c1O | 3.42 µM | – | –
64 | O=C(OCn1ncc(Br)c(Br)c1=O)c1ccccc1Cl | 6.69 µM | – | –
65 | CC12CCC(c3c(C(=O)Nc4nccs4)nn(-c4ccccc4)c31)C2(C)C (stereo not given) | > 10 µM (inactive) | – | –
66 | O=S(=O)(Cc1ccccc1Cl)N1CCN(Cc2ccc3c(c2)OCO3)CC1 | > 10 µM (inactive) | – | –
67 | O=C1C=C(c2ccccc2)C(=O)N1Nc1ccccc1 | 22.5 µM | – | –
